Test results as given in patent US9260710B2, “Photocleavable linker” (City of Hope, priority 2012, dated 2016).

What was measured:
LC8-LC8TRAP complex = assay: UV light (350 nm) disruption of dimerizer-LC8-LC8TRAP complex, native PAGE; type: biochemical; conditions: UV 350 nm
Method: Native PAGE. Each of, LC8 and FKBP-LC8TRAP, were mixed in a molar concentration of 50 μM and 1.2 molar excess (60 μM) of AP20187 or 2.4 molar excess (120 μM) of PhAP20187. The mix were incubated at 4° C. for 5 min. Native PAGE analysis was performed at 16° C. using 8-25% gradient gels on the PHASTSYSTEM™ (GE Biosciences).
Next, we characterized how well UV light could disrupt the PhAP-LC8-LC8TRAP complex in vitro. We generated the PhAP-LC8-LC8TRAP and AP-LC8-LC8TRAP complexes and exposed each to UV light (350 nm). Native PAGE indicated loss of the band corresponding to the PhAP-LC8-LC8TRAP complex and an increase in intensity of bands corresponding to the individual components after UV induction. The band corresponding to the PhAP-LC8-LC8TRAP complex was less intense in samples that received a five min exposure to UV light and undetectable after a 10 min exposure. On the other hand, the LC8-LC8TRAP complex induced by the non-photocleavable AP persisted, even after a 30 min exposure to UV light (FIG. 2C).

[1] = test system: EGFP-FKBP-LC8TRAP transfected COS1 cells; assay: Reversibility of endosome dispersion after UV induction; type: cell-based; conditions: for Percentage of endosomes dispersion (recovery): UV 10 min
Method: (§1) Cell Culture. COS1 cells were cultured in DMEM (CELLGRO®) supplemented with 10% fetal bovine/calf serum (Omega Scientific). Transfection was performed in 80-90% confluent 24-h cultures of COS1 cells using LIPOFECTAMINE™ 2000 (Invitrogen) and OPTI-MEM™ media (GIBCO®) according to the manufacturer's recommendations. Various concentrations (0 nM to 1000 nM) of AP (Ariad Pharmaceuticals Inc.) and PhAP (as described herein) were added to each experimental wells 24 hr. post transfection and incubated for different periods of time before analyzing the cells. For reversibility of endosome dispersion studies, 500 nM of AP/PhAP were used. In each case, the cells were washed well with PBS and supplemented with fresh media before inducing with UV light (10 mins., 4 W, 350 nm) and allowed to recover for various time period at 37° C., before analysis.
(§2) Immunostaining and Microscopy. For immunostaining, transiently transfected COS1 cells were fixed with 3.7% formaldehyde at room temperature for 10 min, and subsequent immunostaining was performed as described previously^[2]. Briefly, COS 1 cells grown on 25-mm coverslips were washed 3× with PBS, treated with 3.7% formaldehyde (Sigma) in PBS for fixation, and permeabilized in 0.5% Triton X-100 (Sigma) in PBS at room temperature for 10 min. Cells were then incubated with blocking buffer containing 4% skimmed milk (fat free) and 0.5% Triton X-100 in PBS. Anti-EEA1 monoclonal antibody was added to label early endosome marker protein at a dilution of 1:100 in the same buffer for 30 min at RT, and the coverslips were washed and incubated with rhodamine-conjugated donkey anti-mouse secondary antibody (1:100). After washing, the coverslips were mounted on slides to visualize the trapping effects. Samples were viewed using an Olympus IX81 automated inverted microscope equipped with water immersion 60× objective. The level of dispersion was quantified by counting 100 cells per coverslip. Each experiment was performed in triplicate. Images were obtained using a Spot RT Slider high-resolution cooled CCD camera equipped to IX81 microscope and Image-Pro software. Images were cropped and processed using Adobe Photoshop 7.0 (Adobe Systems).
UV induction. For UV-induction and recovery of endosome studies, cells were washed with PBS and fresh media were added after drug treatment. The washed cells were then treated with a hand held UV-lamp (365 nm/4 watt) for 10 mins. The cells were then left to recover at 37° C. for varying period of time before staining and analysis.
Next, we characterized the reversibility of endosome dispersion in COS1 cells UV-induced cleavage of PhAP. In these experiments, transiently transfected cells were incubated with PhAP (500 nM) or AP for times ranging from 0-2 h, after which cells were washed rapidly, replenished with fresh media, and then exposed to UV light (10 min, 4 W, 350 nm). The cells were then fixed at 0, 1, 2, 4, and 8 h post UV radiation and the endosomes imaged using fluorescence microscopy at 60× magnification. We observed a gradual recovery of endosomes to the perinuclear region during the first 4 h after UV exposure (44.1±2.3%), with a slight increase in dispersion after 8 h (48.9±3.9%), for cells treated with PhAP (FIG. 3A).

[2] = test system: EGFP-FKBP-LC8TRAP transfected COS1 cells; assay: Endosome dispersion (EEA1 staining) in trap-transfected cells; type: cell-based; conditions: for time of drug treatment after which maximum dispersion was reached: unchanged with further increase in time; for maximum number of cells with dispersed endosomes: 2 h, dimerizer concentrations greater than 500 nM; for drug concentration at which maximum dispersion is seen: 2 hrs treatment, unchanged with further increase in concentration
Method: as §1, §2
To determine if these biochemical results had relevance in cells, we investigated if photocleavage of PhAP could reverse the endosome dispersion phenotype induced by LC8TRAP and AP. First, we established that PhAP behaved in a similar intracellular manner as AP. To this end, we used a green fluorescent protein (GPF) analog of the trap, EGFP-FKBP-LC8TRAP to identify cells that expressed the trap. COS1 cells were transiently transfected with EGFP-FKBP-LC8TRAP for 24 h, after which they were treated with PhAP or AP (0 nM-1000 nM) for 2 h. Cells were then fixed and stained with an early endosome marker 1 (EEA1). The number of cells with dispersed endosomes after treatment with PhAP or AP was indistinguishable. The maximum number of cells with dispersed endosomes (67.5±7.0% for PhAP and 64.1±7.6% for non-photocleavable AP), was obtained at dimerizer concentrations greater than 500 nM. The rate of dispersion was also similar using either dimerizing agent, and no changes were observed past 2 hours. The values obtained for both AP and PhAP are also in agreement with our previous studies. See e.g., Varma et al., 2010 (Id.)

[3] = 30 mins. treatment (500 nM), recovery 0 h
[4] = 30 mins. treatment (500 nM), recovery 1 h
[5] = 30 mins. treatment (500 nM), recovery 2 h
[6] = 30 mins. treatment (500 nM), recovery 4 h
[7] = 30 mins. treatment (500 nM), recovery 8 h
[8] = 1 hr. treatment (500 nM), recovery 0 h
[9] = 1 hr. treatment (500 nM), recovery 1 h
[10] = 1 hr. treatment (500 nM), recovery 2 h
[11] = 1 hr. treatment (500 nM), recovery 4 h
[12] = 1 hr. treatment (500 nM), recovery 8 h
[13] = 2 hr. treatment (500 nM), recovery 0 h
[14] = 2 hr. treatment (500 nM), recovery 1 h
[15] = 2 hr. treatment (500 nM), recovery 2 h
[16] = 2 hr. treatment (500 nM), recovery 4 h
[17] = 2 hr. treatment (500 nM), recovery 8 h
[18] = 500 nM, time 0.167 Hr (10 min.)

Structure (SMILES) | Percentage of endosomes dispersion (recovery) [1, 3] [%] | Percentage of endosomes dispersion (recovery) [1, 4] [%] | Percentage of endosomes dispersion (recovery) [1, 5] [%] | Percentage of endosomes dispersion (recovery) [1, 6] [%] | Percentage of endosomes dispersion (recovery) [1, 7] [%] | Percentage of endosomes dispersion (recovery) [1, 8] [%] | Percentage of endosomes dispersion (recovery) [1, 9] [%] | Percentage of endosomes dispersion (recovery) [1, 10] [%] | Percentage of endosomes dispersion (recovery) [1, 11] [%] | Percentage of endosomes dispersion (recovery) [1, 12] [%] | Percentage of endosomes dispersion (recovery) [1, 13] [%] | Percentage of endosomes dispersion (recovery) [1, 14] [%] | Percentage of endosomes dispersion (recovery) [1, 15] [%] | Percentage of endosomes dispersion (recovery) [1, 16] [%] | Percentage of endosomes dispersion (recovery) [1, 17] [%] | Percentage of endosomes dispersion ([2]; 10 nM, 2 hr. of treatment) [%] | Percentage of endosomes dispersion ([2]; 20 nM, 2 hr. of treatment) [%] | Percentage of endosomes dispersion ([2]; 100 nM, 2 hr. of treatment) [%] | Percentage of endosomes dispersion ([2]; 500 nM, 2 hr. of treatment) [%] | Percentage of endosomes dispersion ([2]; 500 nM, time 0 Hr) | further results
CCC(C(=O)N1CCCCC1C(=O)OC(CCc1ccc(OC)c(OC)c1)c1cccc(OCC(=O)NCC(CNC(=O)COc2cccc(C(CCc3ccc(OC)c(OC)c3)OC(=O)C3CCCCN3C(=O)C(CC)c3cc(OC)c(OC)c(OC)c3)c2)CN(C)C)c1)c1cc(OC)c(OC)c(OC)c1 (stereo not shown) [AP, AP20187] | 51.8 ± 4.4 | 64.7 ± 2.0 | 68.3 ± 3.7 | 69.8 ± 4.3 | 67.9 ± 1.9 | 58.0 ± 4.3 | 71.2 ± 2.5 | 69.7 ± 3.6 | 70.4 ± 3.1 | 70.8 ± 1.9 | 69.1 ± 3.2 | 68.9 ± 3.2 | 70.7 ± 4.0 | 69.5 ± 1.9 | 70.3 ± 3.3 | 44.4 ± 2.4 | 53.0 ± 3.5 | 56.2 ± 1.6 | 64.1 ± 7.6 | 30.2 ± 2.8% | band of dimerizer-LC8-LC8TRAP complex after UV exposure (LC8-LC8TRAP complex; 30 min exposure): persisted; endosome dispersion after UV exposure, all time points ([1]; 0-8 h post UV, with or without UV exposure): remained dispersed at all time points evaluated; saturation point of endosome dispersion ([1]; 30 minutes or 1 hr treatment followed by UV exposure): ~70%; Percentage of endosomes dispersion [2, 18]: 45.0 ± 2.6%; Percentage of endosomes dispersion ([2]; 500 nM, time 0.5 Hr): 53.6 ± 6.5%; Percentage of endosomes dispersion ([2]; 500 nM, time 1 Hr): 53.8 ± 2.9%; Percentage of endosomes dispersion ([2]; 500 nM, time 2 Hr): 69.8 ± 4.3%; Percentage of endosomes dispersion ([2]; 500 nM, time 4 Hr): 70.9 ± 2.1%; time of drug treatment after which maximum dispersion was reached ([2]; 500 nM): 2 h; Percentage of endosomes dispersion ([2]; 1000 nM, 2 hr. of treatment): 66.4 ± 2.5%; maximum number of cells with dispersed endosomes [2]: 64.1±7.6%; drug concentration at which maximum dispersion is seen [2]: 500 nM
CC[C@H](C(=O)N1CCCC[C@H]1C(=O)O[C@H](CCc1ccc(OC)c(OC)c1)c1cccc(OCC(=O)OC(C)c2ccc(C(C)OC(=O)COc3cccc([C@@H](CCc4ccc(OC)c(OC)c4)OC(=O)[C@@H]4CCCCN4C(=O)[C@@H](CC)c4cc(OC)c(OC)c(OC)c4)c3)c([N+](=O)[O-])c2)c1)c1cc(OC)c(OC)c(OC)c1 (stereo partly shown) [PhAP] | 53.2±2.4 | 53.7 ± 4.0 | 50.8 ± 2.3 | 48.0 ± 0.5 | 49.3 ± 6.7 | 57.8±8.0 | 56.4 ± 1.7 | 55.7 ± 8.8 | 46.7 ± 0.6 | 48.1 ± 2.0 | 69.5 ± 2.4 | 66.3 ± 3.2 | 57.6 ± 2.6 | 44.1±2.3 | 48.9±3.9 | 47.9 ± 8.1 | 48.0 ± 5.0 | 57.5 ± 2.4 | 67.5 ± 7.0 | 29.0 ± .8% | band of dimerizer-LC8-LC8TRAP complex after UV exposure (LC8-LC8TRAP complex; 10 min exposure): undetectable; band of dimerizer-LC8-LC8TRAP complex after UV exposure (LC8-LC8TRAP complex; five min exposure): less intense; Percentage of endosomes dispersion ([2]; 50 nM, 2 hr. of treatment): 55.5 ± 1.3%; Percentage of endosomes dispersion [2, 18]: 47.2 ± 2.5%; Percentage of endosomes dispersion ([2]; 500 nM, time 0.5 Hr): 49.1 ± 3.3%; Percentage of endosomes dispersion ([2]; 500 nM, time 1 Hr): 57.2 ± 5.2%; Percentage of endosomes dispersion ([2]; 500 nM, time 2 Hr): 71.2 ± 2.0%; Percentage of endosomes dispersion ([2]; 500 nM, time 4 Hr): 69.0 ± 4.9%; time of drug treatment after which maximum dispersion was reached ([2]; 500 nM): 2 h; Percentage of endosomes dispersion ([2]; 1000 nM, 2 hr. of treatment): 67.7 ± 4.9%; maximum number of cells with dispersed endosomes [2]: 67.5±7.0%; drug concentration at which maximum dispersion is seen [2]: 500 nM
